This is an account of results in US10954201B2, “Two-electron donating phenothiazines and use thereof” (University of Kentucky Research Foundation, priority 2016, dated 2021).

Each structure is given as a SMILES string. Values after ≈ are worked out from the molar mass of the structure shown. Like-named read-outs stand apart in the source and are kept apart here.

A short description of data set [1]: Cyclic voltammetry, 10 mM analyte in 0.5M LiPF6 in PC (FIG. 1, Table 1). The format is physicochemical. The note with it: scan rate 100 mV/s. The method, then: FIG. 1 is a graph showing cyclic voltammograms of DMeOEPT, DMeOMEPT, and DMeOMEEPT, performed with 10 mM analyte in 0.5M LiPF6 in PC at a scan rate of 100 mV/s.
The nature of data set [2]: Solubility in electrolyte formulations. The data set is classed as physicochemical. As to conditions: for solubility compared to the N-ethyl derivative: while retaining stable redox chemistry. The text has this:
Additionally, in some embodiments, the N-substituted phenothiazine compounds described herein provide increased solubility in electrolyte formulations as compared to existing compounds, such as 2,5-di-tert-butyl-1,4-bis(2-methoxyethoxy)benzene (DBBB). In one embodiment, the glyme substituents provide increased solubility in electrolyte formulations as compared to other derivatives. […] In another embodiment, this solubility in organic solvents permits the use of renewable earth-abundant elements.
In some embodiments, the N-substituted phenothiazine compounds described herein provide a multi-electron donor including high stability and solubility in catholyte formulations. In another embodiment, the catholyte material provides a multi-electron donor that retains high chemical stability when charged. […] For example, when formulated at its solubility limit, diglyme-dimethoxyphenothiazine may provide approximately 5 times the volumetric energy of DBBB, which has an energy density of 10 Ah/L when formulated as a catholyte, and is limited by its solubility (0.4M) and redox chemistry, acting as a single electron donor.

A short description of data set [3]: Oxidation potentials vs. ferrocenium/ferrocene in 0.5M TEATFSI/acetonitrile. The format is physicochemical. The text has this:
With regard to Compound IV, oxidation potentials are 0.035 V and 0.625 V vs. ferrocenium/ferrocene in 0.5M TEATFSI/acetonitrile.

The conditions of data set [4]: DBBB formulated as a catholyte; cited from earlier work.

Turning to `CCN1c2ccc(OC)cc2Sc2cc(OC)ccc21` [Compound I, 3,7-dimethoxy-N-ethyl-phenothiazine], the melting point was 115 to 116 °C. Moreover, in data set [1], the “1st Eox vs. Li (half-wave first oxidation potential)” value (“1st Eox vs. Li” for short) amounted to 3.38 V and the “2nd Eox vs. Li (half-wave second oxidation potential)” value (shortened to “2nd Eox vs. Li”) is on record as 3.94 V. Further, the solubility entry in data set [2] is reported as “about 100 mM”.

On to `CCN1c2ccc(OCCOCCOC)cc2Sc2cc(OCCOCCOC)ccc21` [Compound IV], for which, in data set [3], the “oxidation potential (first) vs. ferrocenium/ferrocene” value is listed as 0.035 V and the “oxidation potential (second) vs. ferrocenium/ferrocene” value stood at 0.625 V.

As for `COCCOc1cc(C(C)(C)C)c(OCCOC)cc1C(C)(C)C` [DBBB, 2,5-di-tert-butyl-1,4-bis(2-methoxyethoxy)benzene], the solubility in data set [4] was 400 mM (≈ 135 mg/mL).

Regarding `COCCN1c2ccc(OC)cc2Sc2cc(OC)ccc21` [II, 3,7-dimethoxy-N-methoxyethyl-phenothiazine], the melting point was 108 to 110 °C. In data set [1], the “1st Eox vs. Li” value is reported as 3.42 V and the “2nd Eox vs. Li” value is listed as 3.96 V. Further, the “solubility compared to the N-ethyl derivative” value in data set [2] was “higher solubility”.

Turning to `COCCOCCN1c2ccc(OC)cc2Sc2cc(OC)ccc21` [III, 3,7-dimethoxy-N-((2-methoxy)ethoxy)ethyl-phenothiazine], in data set [1], the “1st Eox vs. Li” value came out at 3.41 V and the “2nd Eox vs. Li” value was 3.98 V. Moreover, in data set [2], the “solubility compared to the N-ethyl derivative” value is reported as “higher solubility”.
